From patent US11981658B2, “Substituted aminopyridine compounds as EGFR inhibitors” (YUHAN CORPORATION, priority 2021, dated 2024)
Read-outs that look alike come from different tables or passages of the source.

Experiments:
[1] = target: EGFR Del19/C797S (Homo sapiens, UniProt P00533, C797S/DEL746-750); assay: Biochemical EGFR kinase inhibition assay (Lance Ultra TR-FRET), double mutant del19/C797S
Method in brief: (§1)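 Enzyme reactions lasted 1 hour at room temperature with test compounds between 0.003 and 10 μM, followed by 10 mM EDTA quench.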

[2] = target: EGFR L858R/T790M/C797S (Homo sapiens, UniProt P00533, C797S/L858R/T790M); assay: Biochemical EGFR kinase inhibition assay (Lance Ultra TR-FRET), triple mutant L858R/T790M/C797S
EGFR L858R/T790M/C797S, sequence (P00533 25-1210 T790M/C797S/L858R): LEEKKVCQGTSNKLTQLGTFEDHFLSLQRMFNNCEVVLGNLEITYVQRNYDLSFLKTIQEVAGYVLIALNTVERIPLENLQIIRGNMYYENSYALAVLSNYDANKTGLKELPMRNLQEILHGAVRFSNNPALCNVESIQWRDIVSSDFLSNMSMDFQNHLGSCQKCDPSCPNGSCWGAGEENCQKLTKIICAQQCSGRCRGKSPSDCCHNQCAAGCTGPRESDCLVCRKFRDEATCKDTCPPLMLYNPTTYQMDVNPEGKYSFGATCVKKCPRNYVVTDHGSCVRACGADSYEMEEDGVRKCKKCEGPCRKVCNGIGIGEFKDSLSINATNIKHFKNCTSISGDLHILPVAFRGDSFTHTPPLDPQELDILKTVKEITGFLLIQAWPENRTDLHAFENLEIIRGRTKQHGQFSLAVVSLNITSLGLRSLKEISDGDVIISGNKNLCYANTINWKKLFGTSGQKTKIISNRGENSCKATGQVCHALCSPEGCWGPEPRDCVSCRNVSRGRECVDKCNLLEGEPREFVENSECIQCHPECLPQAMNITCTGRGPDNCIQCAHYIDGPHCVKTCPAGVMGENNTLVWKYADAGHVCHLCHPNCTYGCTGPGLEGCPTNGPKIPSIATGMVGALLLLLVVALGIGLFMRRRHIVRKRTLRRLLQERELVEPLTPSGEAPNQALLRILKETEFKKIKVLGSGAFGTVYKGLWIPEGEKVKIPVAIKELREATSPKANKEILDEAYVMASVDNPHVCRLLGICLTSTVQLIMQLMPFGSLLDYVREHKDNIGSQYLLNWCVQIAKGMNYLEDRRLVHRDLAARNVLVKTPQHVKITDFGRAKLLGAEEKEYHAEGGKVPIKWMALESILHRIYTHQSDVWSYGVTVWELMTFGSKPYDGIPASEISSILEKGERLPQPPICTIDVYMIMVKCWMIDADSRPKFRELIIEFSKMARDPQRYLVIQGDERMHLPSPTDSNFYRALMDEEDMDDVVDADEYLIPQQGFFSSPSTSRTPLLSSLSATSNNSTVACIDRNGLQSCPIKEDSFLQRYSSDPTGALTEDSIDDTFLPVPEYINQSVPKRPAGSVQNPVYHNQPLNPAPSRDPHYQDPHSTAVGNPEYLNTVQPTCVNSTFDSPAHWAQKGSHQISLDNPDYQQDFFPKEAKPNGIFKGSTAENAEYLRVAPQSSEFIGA
Method in brief: as §1

[3] = target: EGFR L858R/C797S (Homo sapiens, UniProt P00533, C797S/L858R); assay: Biochemical EGFR kinase inhibition assay (Lance Ultra TR-FRET), double mutant L858R/C797S
Method in brief: as §1

[4] = target: EGFR wildtype (WT) (Homo sapiens, UniProt P00533); assay: Biochemical EGFR kinase inhibition assay (Lance Ultra TR-FRET), wildtype
EGFR wildtype (WT), sequence (P00533 25-1210): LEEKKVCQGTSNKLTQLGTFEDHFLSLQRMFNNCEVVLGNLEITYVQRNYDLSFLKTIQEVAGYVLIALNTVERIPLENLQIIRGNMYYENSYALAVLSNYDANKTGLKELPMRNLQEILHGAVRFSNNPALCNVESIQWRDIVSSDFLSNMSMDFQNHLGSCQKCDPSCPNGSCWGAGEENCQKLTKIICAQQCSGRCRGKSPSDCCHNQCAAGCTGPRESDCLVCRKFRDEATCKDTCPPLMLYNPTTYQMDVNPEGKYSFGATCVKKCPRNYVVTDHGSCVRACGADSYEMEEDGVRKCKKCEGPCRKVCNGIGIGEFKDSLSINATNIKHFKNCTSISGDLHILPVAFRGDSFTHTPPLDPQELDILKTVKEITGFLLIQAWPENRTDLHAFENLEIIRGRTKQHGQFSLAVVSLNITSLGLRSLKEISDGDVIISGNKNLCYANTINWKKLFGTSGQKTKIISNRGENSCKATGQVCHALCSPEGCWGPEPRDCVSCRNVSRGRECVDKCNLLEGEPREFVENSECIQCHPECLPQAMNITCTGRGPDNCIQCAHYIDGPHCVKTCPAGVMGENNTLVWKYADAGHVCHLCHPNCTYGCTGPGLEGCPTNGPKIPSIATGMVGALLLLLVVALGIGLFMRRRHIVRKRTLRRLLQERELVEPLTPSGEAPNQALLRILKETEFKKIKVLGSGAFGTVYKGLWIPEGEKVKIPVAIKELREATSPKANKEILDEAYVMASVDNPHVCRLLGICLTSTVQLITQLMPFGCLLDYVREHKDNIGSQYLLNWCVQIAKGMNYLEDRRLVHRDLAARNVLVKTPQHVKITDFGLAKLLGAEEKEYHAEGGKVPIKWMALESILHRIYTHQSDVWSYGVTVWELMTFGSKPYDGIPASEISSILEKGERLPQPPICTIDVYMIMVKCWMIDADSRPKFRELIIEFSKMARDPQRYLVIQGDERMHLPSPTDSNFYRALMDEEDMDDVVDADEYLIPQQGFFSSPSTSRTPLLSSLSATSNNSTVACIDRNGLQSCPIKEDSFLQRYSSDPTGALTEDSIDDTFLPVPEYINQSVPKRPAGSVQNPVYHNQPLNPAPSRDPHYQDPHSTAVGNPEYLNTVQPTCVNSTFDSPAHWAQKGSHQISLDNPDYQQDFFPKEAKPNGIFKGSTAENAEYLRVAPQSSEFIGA
Method in brief: as §1

[5] = target: EGFR Del19/T790M/C797S (Homo sapiens, UniProt P00533, C797S/DEL746-750/T790M); assay: Biochemical EGFR kinase inhibition assay (Lance Ultra TR-FRET), triple mutant del19/T790M/C797S
EGFR Del19/T790M/C797S, sequence (P00533 with tags, fused parts or gaps DEL746-750/T790M/C797S): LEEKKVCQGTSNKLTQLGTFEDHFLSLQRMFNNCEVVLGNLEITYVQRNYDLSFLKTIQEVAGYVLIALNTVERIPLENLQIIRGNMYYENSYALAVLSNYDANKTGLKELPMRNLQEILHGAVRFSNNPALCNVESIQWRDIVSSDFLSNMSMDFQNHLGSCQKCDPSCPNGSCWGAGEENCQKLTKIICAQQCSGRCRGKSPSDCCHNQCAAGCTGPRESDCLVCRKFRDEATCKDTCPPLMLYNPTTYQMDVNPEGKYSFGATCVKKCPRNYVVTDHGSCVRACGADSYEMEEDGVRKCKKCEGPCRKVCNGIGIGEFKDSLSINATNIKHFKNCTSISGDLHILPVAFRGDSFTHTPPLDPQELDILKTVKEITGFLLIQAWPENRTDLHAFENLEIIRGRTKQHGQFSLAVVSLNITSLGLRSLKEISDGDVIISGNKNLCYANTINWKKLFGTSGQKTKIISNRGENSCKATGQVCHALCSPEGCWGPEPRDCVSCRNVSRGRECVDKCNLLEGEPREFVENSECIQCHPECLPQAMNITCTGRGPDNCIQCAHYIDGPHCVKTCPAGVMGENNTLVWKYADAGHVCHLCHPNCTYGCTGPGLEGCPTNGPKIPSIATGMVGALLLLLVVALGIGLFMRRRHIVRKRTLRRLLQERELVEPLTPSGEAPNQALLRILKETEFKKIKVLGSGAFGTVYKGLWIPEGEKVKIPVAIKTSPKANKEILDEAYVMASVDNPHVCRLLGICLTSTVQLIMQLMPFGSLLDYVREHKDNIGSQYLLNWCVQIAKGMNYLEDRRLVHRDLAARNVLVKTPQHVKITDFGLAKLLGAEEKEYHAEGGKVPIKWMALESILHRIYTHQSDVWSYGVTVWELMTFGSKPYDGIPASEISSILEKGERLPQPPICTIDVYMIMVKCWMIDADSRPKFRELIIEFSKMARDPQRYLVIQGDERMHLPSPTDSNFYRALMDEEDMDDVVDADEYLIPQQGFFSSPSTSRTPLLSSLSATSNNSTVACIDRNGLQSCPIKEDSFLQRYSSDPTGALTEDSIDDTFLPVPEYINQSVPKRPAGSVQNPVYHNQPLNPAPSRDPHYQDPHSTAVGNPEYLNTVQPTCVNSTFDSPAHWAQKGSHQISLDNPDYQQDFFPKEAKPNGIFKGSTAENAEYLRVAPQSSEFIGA
Method in brief: as §1

[6] = Km ATP, read-out: IC50 Del19/C797S (nM) Km ATP
[7] = Km ATP, read-out: IC50 L858R/T790M/C797S (nM) Km ATP
[8] = Km ATP, read-out: IC50 L858R/C797S (nM) Km ATP
[9] = Km ATP, read-out: IC50 WT (nM) Km ATP
[10] = Km ATP, read-out: IC50 Del19/T790M/C797S (nM) Km ATP
[11] = IC50 Del19/C797S (nM), 100 μM ATP
[12] = IC50 L858R/T790M/C797S (nM), 100 μM ATP
[13] = IC50 L858R/C797S (nM), 100 μM ATP
[14] = IC50 Del19/T790M/C797S (nM), 100 μM ATP

EGFR Del19/C797S, sequence (P00533 with tags, fused parts or gaps DEL746-750/C797S): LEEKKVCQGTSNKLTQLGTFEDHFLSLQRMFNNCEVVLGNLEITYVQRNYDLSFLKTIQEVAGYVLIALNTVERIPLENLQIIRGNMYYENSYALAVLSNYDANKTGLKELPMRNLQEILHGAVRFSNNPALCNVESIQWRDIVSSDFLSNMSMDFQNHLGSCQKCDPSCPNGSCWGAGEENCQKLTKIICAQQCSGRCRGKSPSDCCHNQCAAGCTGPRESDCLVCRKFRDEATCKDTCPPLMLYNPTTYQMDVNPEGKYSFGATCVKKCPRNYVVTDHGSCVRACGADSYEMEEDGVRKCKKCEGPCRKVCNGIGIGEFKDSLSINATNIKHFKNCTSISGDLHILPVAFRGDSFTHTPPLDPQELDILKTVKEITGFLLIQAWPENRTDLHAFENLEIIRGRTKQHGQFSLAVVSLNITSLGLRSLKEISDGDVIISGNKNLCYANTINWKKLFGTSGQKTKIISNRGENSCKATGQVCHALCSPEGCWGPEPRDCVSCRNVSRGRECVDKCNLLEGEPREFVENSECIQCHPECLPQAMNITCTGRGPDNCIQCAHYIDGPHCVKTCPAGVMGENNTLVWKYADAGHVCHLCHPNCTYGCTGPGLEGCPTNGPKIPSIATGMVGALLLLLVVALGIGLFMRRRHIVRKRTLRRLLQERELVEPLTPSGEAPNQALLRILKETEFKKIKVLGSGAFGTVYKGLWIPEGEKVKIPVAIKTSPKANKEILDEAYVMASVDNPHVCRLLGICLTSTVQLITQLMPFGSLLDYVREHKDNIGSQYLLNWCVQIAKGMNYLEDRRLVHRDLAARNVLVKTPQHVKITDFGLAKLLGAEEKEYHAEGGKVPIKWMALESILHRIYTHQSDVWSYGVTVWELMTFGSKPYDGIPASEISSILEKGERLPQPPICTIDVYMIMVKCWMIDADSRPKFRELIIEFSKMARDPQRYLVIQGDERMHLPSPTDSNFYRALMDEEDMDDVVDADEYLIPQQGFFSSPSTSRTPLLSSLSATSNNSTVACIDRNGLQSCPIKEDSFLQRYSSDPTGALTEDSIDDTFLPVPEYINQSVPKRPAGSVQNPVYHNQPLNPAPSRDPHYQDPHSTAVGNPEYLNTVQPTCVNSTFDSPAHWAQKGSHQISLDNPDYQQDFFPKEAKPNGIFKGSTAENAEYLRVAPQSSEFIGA

CN(C)C[C@H]1CC[C@H](COc2cc(Nc3ccnc(-c4cnn(S(=O)(=O)C5CC5)c4)n3)ncc2C#Cc2cccnc2)CC1 [Example 62, 2-(1-(Cyclopropylsulfonyl)-1H-pyrazol-4-yl)-N-(4-(((1r,4r)-4-((dimethylamino)methyl)cyclohexyl)methoxy)-5-(pyridin-3-ylethynyl)pyridin-2-yl)pyrimidin-4-amine]
IC50 [1, 6]: 0.4 nM | IC50 [2, 7]: 0.1 nM | IC50 [3, 8]: 4.9 nM | IC50 [4, 9]: 7.9 nM | IC50 [5, 10]: 0.2 nM

Cn1cc(C#Cc2cnc(Nc3ccnc(-c4cnn(S(=O)(=O)C5CC5)c4)n3)cc2N2CCC(NS(C)(=O)=O)CC2)cn1 [Example 63, N-(1-(2-((2-(1-(Cyclopropylsulfonyl)-1H-pyrazol-4-yl)pyrimidin-4-yl)amino)-5-((1-methyl-1H-pyrazol-4-yl)ethynyl)pyridin-4-yl)piperidin-4-yl)methanesulfonamide]
IC50 [1, 11]: 23.1 nM | IC50 [2, 12]: 2.4 nM | IC50 [3, 13]: 83.4 nM | IC50 ([4]; IC50 WT (nM), 100 μM ATP): > 10000 nM | IC50 [5, 14]: 1.2 nM

CC(C)NC1CCN(c2cc(Nc3ccnc(-c4cnn(S(=O)(=O)C5CC5)c4)n3)ncc2C#Cc2cnn(C)c2)CC1 [Example 64, 2-(1-(Cyclopropylsulfonyl)-1H-pyrazol-4-yl)-N-(4-(4-(isopropylamino)piperidin-1-yl)-5-((1-methyl-1H-pyrazol-4-yl)ethynyl)pyridin-2-yl)pyrimidin-4-amine]
IC50 [1, 11]: 88.3 nM | IC50 [2, 12]: 2 nM | IC50 [3, 13]: 306 nM | IC50 ([4]; IC50 WT (nM), 100 μM ATP): > 10000 nM | IC50 [5, 14]: 1 nM

Cn1cc(C#Cc2cnc(Nc3ccnc(-c4cnn(S(=O)(=O)C5CC5)c4)n3)cc2N2CCC(C(F)(F)F)CC2)cn1 [Example 65, 2-(1-(Cyclopropylsulfonyl)-1H-pyrazol-4-yl)-N-(5-((1-methyl-1H-pyrazol-4-yl)ethynyl)-4-(4-(trifluoromethyl)piperidin-1-yl)pyridin-2-yl)pyrimidin-4-amine]
IC50 [1, 11]: 338 nM | IC50 [2, 12]: 39.2 nM | IC50 [3, 13]: 604 nM | IC50 ([4]; IC50 WT (nM), 100 μM ATP): > 10000 nM | IC50 [5, 14]: 8.2 nM

Cn1cc(C#Cc2cnc(Nc3ccnc(-c4cnn(S(=O)(=O)C5CC5)c4)n3)cc2N2CCC(F)(C(F)(F)F)CC2)cn1 [Example 66, 2-(1-(Cyclopropylsulfonyl)-1H-pyrazol-4-yl)-N-(4-(4-fluoro-4-(trifluoromethyl)piperidin-1-yl)-5-((1-methyl-1H-pyrazol-4-yl)ethynyl)pyridin-2-yl)pyrimidin-4-amine]
IC50 [1, 11]: 114 nM | IC50 [2, 12]: 31.1 nM | IC50 [3, 13]: 350 nM | IC50 ([4]; IC50 WT (nM), 100 μM ATP): > 10000 nM | IC50 [5, 14]: 9 nM

Cn1cc(C#Cc2cnc(Nc3ccnc(-c4cnn(S(=O)(=O)C5CC5)c4)n3)cc2N2CCC(OC(F)(F)F)CC2)cn1 [Example 67, 2-(1-(Cyclopropylsulfonyl)-1H-pyrazol-4-yl)-N-(5-((1-methyl-1H-pyrazol-4-yl)ethynyl)-4-(4-(trifluoromethoxy)piperidin-1-yl)pyridin-2-yl)pyrimidin-4-amine]
IC50 [1, 11]: 181 nM | IC50 [2, 12]: 27.7 nM | IC50 [3, 13]: 209 nM | IC50 ([4]; IC50 WT (nM), 100 μM ATP): > 10000 nM | IC50 [5, 14]: 13.3 nM

Cn1cc(C#Cc2cnc(Nc3ccnc(-c4cnn(S(=O)(=O)C5CC5)c4)n3)cc2N2CCC(O)C(F)(F)C2)cn1 (stereo not drawn) [Example 68, 1-(2-((2-(1-(Cyclopropylsulfonyl)-1H-pyrazol-4-yl)pyrimidin-4-yl)amino)-5-((1-methyl-1H-pyrazol-4-yl)ethynyl)pyridin-4-yl)-3,3-difluoropiperidin-4-ol]
IC50 [1, 11]: 31 nM | IC50 [2, 12]: 8.9 nM | IC50 [3, 13]: 130 nM | IC50 ([4]; IC50 WT (nM), 100 μM ATP): > 10000 nM | IC50 [5, 14]: 1.3 nM

Cn1cc(C#Cc2cnc(Nc3ccnc(-c4cnn(S(=O)(=O)C5CC5)c4)n3)cc2N2CCC(O)C(C)(C)C2)cn1 (stereo not drawn) [Example 69, 1-(2-((2-(1-(Cyclopropylsulfonyl)-1H-pyrazol-4-yl)pyrimidin-4-yl)amino)-5-((1-methyl-1H-pyrazol-4-yl)ethynyl)pyridin-4-yl)-3,3-dimethylpiperidin-4-ol]
IC50 [1, 11]: 43.8 nM | IC50 [2, 12]: 13.2 nM | IC50 [3, 13]: 179 nM | IC50 ([4]; IC50 WT (nM), 100 μM ATP): > 10000 nM | IC50 [5, 14]: 1.7 nM

Cn1cc(C#Cc2cnc(Nc3ccnc(-c4cnn(S(=O)(=O)C5CC5)c4)n3)cc2N2CCCC(F)C2)cn1 (stereo not drawn) [Example 70, 2-(1-(Cyclopropylsulfonyl)-1H-pyrazol-4-yl)-N-(4-(3-fluoropiperidin-1-yl)-5-((1-methyl-1H-pyrazol-4-yl)ethynyl)pyridin-2-yl)pyrimidin-4-amine]
IC50 [1, 11]: 24.7 nM | IC50 [2, 12]: 10.4 nM | IC50 [3, 13]: 172 nM | IC50 ([4]; IC50 WT (nM), 100 μM ATP): > 10000 nM | IC50 [5, 14]: 1.6 nM

Cn1cc(C#Cc2cnc(Nc3ccnc(-c4cnn(S(=O)(=O)C5CC5)c4)n3)cc2N2CCCC(C(F)(F)F)C2)cn1 (stereo not drawn) [Example 71, 2-(1-(Cyclopropylsulfonyl)-1H-pyrazol-4-yl)-N-(5-((1-methyl-1H-pyrazol-4-yl)ethynyl)-4-(3-(trifluoromethyl)piperidin-1-yl)pyridin-2-yl)pyrimidin-4-amine]
IC50 [1, 11]: 127 nM | IC50 [2, 12]: 52.6 nM | IC50 [3, 13]: 751 nM | IC50 ([4]; IC50 WT (nM), 100 μM ATP): > 10000 nM | IC50 [5, 14]: 15.7 nM

Cn1cc(C#Cc2cnc(Nc3ccnc(-c4cnn(S(=O)(=O)C5CC5)c4)n3)cc2N2CCCC(CF)C2)cn1 (stereo not drawn) [Example 72, 2-(1-(Cyclopropylsulfonyl)-1H-pyrazol-4-yl)-N-(4-(3-(fluoromethyl)piperidin-1-yl)-5-((1-methyl-1H-pyrazol-4-yl)ethynyl)pyridin-2-yl)pyrimidin-4-amine]
IC50 [1, 11]: 50.3 nM | IC50 [2, 12]: 16.9 nM | IC50 [3, 13]: 170 nM | IC50 ([4]; IC50 WT (nM), 100 μM ATP): > 10000 nM | IC50 [5, 14]: 2.8 nM

Cn1cc(C#Cc2cnc(Nc3ccnc(-c4cnn(S(=O)(=O)C5CC5)c4)n3)cc2N2CCC(F)(CO)CC2)cn1 [Example 73, (1-(2-((2-(1-(Cyclopropylsulfonyl)-1H-pyrazol-4-yl)pyrimidin-4-yl)amino)-5-((1-methyl-1H-pyrazol-4-yl)ethynyl)pyridin-4-yl)-4-fluoropiperidin-4-yl)methanol]
IC50 [1, 11]: 2.8 nM | IC50 [2, 12]: 1.2 nM | IC50 [3, 13]: 6.6 nM | IC50 ([4]; IC50 WT (nM), 100 μM ATP): 7550 nM | IC50 [5, 14]: 0.4 nM

Cn1cc(C#Cc2cnc(Nc3ccnc(-c4cnn(S(=O)(=O)C5CC5)c4)n3)cc2NC2CCCC(F)C2)cn1 (stereo not drawn) [Example 74, N^2-(2-(1-(Cyclopropylsulfonyl)-1H-pyrazol-4-yl)pyrimidin-4-yl)-N^4-(3-fluorocyclohexyl)-5-((1-methyl-1H-pyrazol-4-yl)ethynyl)pyridine-2,4-diamine]
IC50 [1, 11]: 123 nM | IC50 [2, 12]: 13.6 nM | IC50 [3, 13]: 181 nM | IC50 ([4]; IC50 WT (nM), 100 μM ATP): > 10000 nM | IC50 [5, 14]: 4.7 nM

Cn1cc(C#Cc2cnc(Nc3ccnc(-c4cnn(S(=O)(=O)C5CC5)c4)n3)cc2N[C@H]2CCC[C@@H](O)C2)cn1 [Example 75, (1R,3S)-3-((2-((2-(1-(Cyclopropylsulfonyl)-1H-pyrazol-4-yl)pyrimidin-4-yl)amino)-5-((1-methyl-1H-pyrazol-4-yl)ethynyl)pyridin-4-yl)amino)cyclohexan-1-ol]
IC50 [1, 11]: 5.7 nM | IC50 [1, 6]: 3.8 nM | IC50 [2, 12]: 1.8 nM | IC50 [2, 7]: 0.8 nM | IC50 [3, 13]: 104 nM | IC50 [3, 8]: 2.6 nM | IC50 ([4]; IC50 WT (nM), 100 μM ATP): > 10000 nM | IC50 [4, 9]: 45.6 nM | IC50 [5, 14]: 1.6 nM | IC50 [5, 10]: 1.8 nM

Cn1cc(C#Cc2cnc(Nc3ccnc(-c4cnn(S(=O)(=O)C5CC5)c4)n3)cc2N[C@@H]2CCC[C@@H](O)C2)cn1 [Example 76, (1R,3R)-3-((2-((2-(1-(Cyclopropylsulfonyl)-1H-pyrazol-4-yl)pyrimidin-4-yl)amino)-5-((1-methyl-1H-pyrazol-4-yl)ethynyl)pyridin-4-yl)amino)cyclohexan-1-ol]
IC50 [1, 11]: 80.7 nM | IC50 [1, 6]: 51.9 nM | IC50 [2, 12]: 8.8 nM | IC50 [2, 7]: 2.2 nM | IC50 [3, 13]: 2780 nM | IC50 [3, 8]: 22.1 nM | IC50 ([4]; IC50 WT (nM), 100 μM ATP): > 10000 nM | IC50 [4, 9]: 667 nM | IC50 [5, 14]: 4 nM | IC50 [5, 10]: 3.7 nM

Cn1cc(C#Cc2cnc(Nc3ccnc(-c4cnn(S(=O)(=O)C5CC5)c4)n3)cc2N2CCCC(O)CC2)cn1 (stereo not drawn) [Example 77, 1-(2-((2-(1-(Cyclopropylsulfonyl)-1H-pyrazol-4-yl)pyrimidin-4-yl)amino)-5-((1-methyl-1H-pyrazol-4-yl)ethynyl)pyridin-4-yl)azepan-4-ol]
IC50 [1, 11]: 6.3 nM | IC50 [1, 6]: 5 nM | IC50 [2, 12]: 3.6 nM | IC50 [2, 7]: 0.5 nM | IC50 [3, 13]: 357 nM | IC50 [3, 8]: 14.1 nM | IC50 ([4]; IC50 WT (nM), 100 μM ATP): > 10000 nM | IC50 [4, 9]: 97 nM | IC50 [5, 14]: 0.6 nM | IC50 [5, 10]: 0.9 nM

Cn1cc(C#Cc2cnc(Nc3ccnc(-c4cnn(S(=O)(=O)C5CC5)c4)n3)cc2N2CCCC(CO)CC2)cn1 (stereo not drawn) [Example 78, (1-(2-((2-(1-(Cyclopropylsulfonyl)-1H-pyrazol-4-yl)pyrimidin-4-yl)amino)-5-((1-methyl-1H-pyrazol-4-yl)ethynyl)pyridin-4-yl)azepan-4-yl)methanol]
IC50 [1, 11]: 12.4 nM | IC50 [1, 6]: 10.4 nM | IC50 [2, 12]: 5.9 nM | IC50 [2, 7]: 0.7 nM | IC50 [3, 13]: 563 nM | IC50 [3, 8]: 22.1 nM | IC50 ([4]; IC50 WT (nM), 100 μM ATP): > 10000 nM | IC50 [4, 9]: 163 nM | IC50 [5, 14]: 1.3 nM | IC50 [5, 10]: 1.6 nM
